Read-outs that look alike come from different tables or passages of the source.
Columns and labels:
[1] = LD50 determination, i.v. (Karber and Behrens); conditions: mouse, in vivo, iv
Description: (§1) The determination of the LD50 is made in the mouse after i.v. injection of the molecules according to the methodology described by Karber and Behrens.
(§2) male nu/nu SSCUP nude mice bearing heterotransplants of human melanomas.

[2] = tested on: male nu/nu SSCUP nude mice bearing heterotransplants (Beu melanoma); assay: LD50 determination, i.v. (Karber and Behrens); conditions: mouse, in vivo, iv
Description: as §1, §2

[3] = Tissue distribution in Swiss nu/nu SSCUP mice bearing Beu; format: in vivo, human; conditions: mouse, iv, 3 umol/animal
Method: The study of the tissue distribution of the ^125 I labelled compounds was performed in mice bearing grafted melanomas (cf. autoradiograms above). […] The animals are sacrificed at different time intervals of 1 to 24 hours after the injection. The blood is collected and the principal organs are excised. Aliquots are weighed and the radioactivity of the samples is measured in a […] 1191 counter (analytic tracer). The counting yield for iodine 125 is 60%. The results are expressed: as a percentage of the injected dose bound per g of tissue (% ID/g); in the form of the ratios [formula] This ratio reflects more precisely the selectivity of a molecule for an organ (tables 2, 4, 6, 8, 10 and 12).

[4] = tested on: EMT6 tumor (spontaneous mammary carcinoma of mice); assay: Scintillation imaging (specificity), BALB mice; format: in vivo, mouse
Description: The mice bearing grafted tumors are anesthetized by the i.p. injection of sodium pentobarbital 1/5 and immobilized under a scintillation camera (Gammatome II, CGR) equipped with a pinhole 3-360 collimator, sensitivity 3.2 10^-4.

[5] = intestine, read-out: intestine % ID/g
[6] = kidney, read-out: kidney % ID/g
[7] = muscle, read-out: muscle % ID/g
[8] = pancreas, read-out: pancreas % ID/g
[9] = plasma, read-out: plasma % ID/g
[10] = spleen, read-out: spleen % ID/g
[11] = stomach, read-out: stomach % ID/g
[12] = submaxillary glands, read-out: submaxillary glands % ID/g

SMILES: CCN(CC)CCNC(=O)c1ccc(I)cc1 [Derivative A, N-(2-diethylaminoethyl) 4-iodo benzamide]
- LD50 [1]: 90 mg/kg
- LD 0 [2]: 60 mg/kg
- LD 100 [2]: 150 mg/kg
- tissue uptake at 1 h ([3]; blood, read-out: blood % ID/g): 0.87 %ID/g
- tissue uptake at 2 h ([3]; blood, read-out: blood % ID/g): 0.53 %ID/g
- tissue uptake at 4 h ([3]; blood, read-out: blood % ID/g): 0.32 %ID/g
- tissue uptake at 6 h ([3]; blood, read-out: blood % ID/g): 0.13 %ID/g
- tissue uptake at 24 h ([3]; blood, read-out: blood % ID/g): 0.01 %ID/g
- tissue uptake at 8 h ([3]; blood, 8 h, read-out: blood % ID/g): 0.05 %ID/g
- tissue uptake at 12 h ([3]; blood, read-out: blood % ID/g): 0.02 %ID/g
- tissue uptake at 1 h ([3]; brain, read-out: brain % ID/g): 1.66 %ID/g
- tissue uptake at 2 h ([3]; brain, read-out: brain % ID/g): 1.13 %ID/g
- tissue uptake at 4 h ([3]; brain, read-out: brain % ID/g): 0.78 %ID/g
- tissue uptake at 6 h ([3]; brain, read-out: brain % ID/g): 0.28 %ID/g
- tissue uptake at 24 h ([3]; brain, read-out: brain % ID/g): 0.006 %ID/g
- tissue uptake at 8 h ([3]; brain, 8 h, read-out: brain % ID/g): 0.13 %ID/g
- tissue uptake at 12 h ([3]; brain, read-out: brain % ID/g): 0.01 %ID/g
- tissue uptake at 1 h ([3]; eye, read-out: eye % ID/g): 0.64 %ID/g
- tissue uptake at 2 h ([3]; eye, read-out: eye % ID/g): 0.56 %ID/g
- tissue uptake at 4 h ([3]; eye, read-out: eye % ID/g): 0.34 %ID/g
- tissue uptake at 6 h ([3]; eye, read-out: eye % ID/g): 0.13 %ID/g
- tissue uptake at 24 h ([3]; eye, read-out: eye % ID/g): 0.03 %ID/g
- tissue uptake at 8 h ([3]; eye, 8 h, read-out: eye % ID/g): 0.07 %ID/g
- tissue uptake at 12 h ([3]; eye, read-out: eye % ID/g): 0.03 %ID/g
- tissue uptake at 1 h [3, 5]: 3.76 %ID/g
- tissue uptake at 2 h [3, 5]: 2.35 %ID/g
- tissue uptake at 4 h [3, 5]: 1.56 %ID/g
- tissue uptake at 6 h [3, 5]: 0.52 %ID/g
- tissue uptake at 8 h ([3]; intestine, 8 h, read-out: intestine % ID/g): 0.15 %ID/g
- tissue uptake at 12 h [3, 5]: 0.08 %ID/g
- tissue uptake at 24 h [3, 5]: 0.03 %ID/g
- tissue uptake at 1 h [3, 6]: 7.63 %ID/g
- tissue uptake at 2 h [3, 6]: 5.9 %ID/g
- tissue uptake at 4 h [3, 6]: 4.28 %ID/g
- tissue uptake at 6 h [3, 6]: 0.99 %ID/g
- tissue uptake at 24 h [3, 6]: 0.06 %ID/g
- tissue uptake at 8 h ([3]; kidney, 8 h, read-out: kidney % ID/g): 0.28 %ID/g
- tissue uptake at 12 h [3, 6]: 0.1 %ID/g
- tissue uptake at 1 h ([3]; liver, read-out: liver % ID/g): 5.27 %ID/g
- tissue uptake at 2 h ([3]; liver, read-out: liver % ID/g): 3.5 %ID/g
- tissue uptake at 4 h ([3]; liver, read-out: liver % ID/g): 2.28 %ID/g
- tissue uptake at 6 h ([3]; liver, read-out: liver % ID/g): 0.94 %ID/g
- tissue uptake at 24 h ([3]; liver, read-out: liver % ID/g): 0.13 %ID/g
- tissue uptake at 8 h ([3]; liver, 8 h, read-out: liver % ID/g): 0.52 %ID/g
- tissue uptake at 12 h ([3]; liver, read-out: liver % ID/g): 0.28 %ID/g
- tissue uptake at 1 h ([3]; lungs, read-out: lungs % ID/g): 7.77 %ID/g
- tissue uptake at 2 h ([3]; lungs, read-out: lungs % ID/g): 4.71 %ID/g
- tissue uptake at 4 h ([3]; lungs, read-out: lungs % ID/g): 3.6 %ID/g
- tissue uptake at 6 h ([3]; lungs, read-out: lungs % ID/g): 1.25 %ID/g
- tissue uptake at 8 h ([3]; lungs, 8 h, read-out: lungs % ID/g): 0.35 %ID/g
- tissue uptake at 12 h ([3]; lungs, read-out: lungs % ID/g): 0.08 %ID/g
- tissue uptake at 24 h ([3]; lungs, read-out: lungs % ID/g): 0.05 %ID/g
- tissue uptake at 1 h [3, 7]: 1.3 %ID/g
- tissue uptake at 2 h [3, 7]: 0.93 %ID/g
- tissue uptake at 4 h [3, 7]: 0.51 %ID/g
- tissue uptake at 6 h [3, 7]: 0.33 %ID/g
- tissue uptake at 24 h [3, 7]: 0.01 %ID/g
- tissue uptake at 8 h ([3]; muscle, 8 h, read-out: muscle % ID/g): 0.08 %ID/g
- tissue uptake at 12 h [3, 7]: 0.01 %ID/g
- tissue uptake at 1 h [3, 8]: 3.99 %ID/g
- tissue uptake at 2 h [3, 8]: 2.28 %ID/g
- tissue uptake at 4 h [3, 8]: 1.39 %ID/g
- tissue uptake at 6 h [3, 8]: 0.36 %ID/g
- tissue uptake at 8 h ([3]; pancreas, 8 h, read-out: pancreas % ID/g): 0.12 %ID/g
- tissue uptake at 12 h [3, 8]: 0.06 %ID/g
- tissue uptake at 24 h [3, 8]: 0.05 %ID/g
- tissue uptake at 1 h [3, 9]: 0.46 %ID/g
- tissue uptake at 2 h [3, 9]: 0.35 %ID/g
- tissue uptake at 4 h [3, 9]: 0.2 %ID/g
- tissue uptake at 6 h [3, 9]: 0.12 %ID/g
- tissue uptake at 24 h [3, 9]: 0.01 %ID/g
- tissue uptake at 8 h ([3]; plasma, 8 h, read-out: plasma % ID/g): 0.04 %ID/g
- tissue uptake at 12 h [3, 9]: 0.02 %ID/g
- tissue uptake at 1 h [3, 10]: 4.11 %ID/g
- tissue uptake at 2 h [3, 10]: 2.12 %ID/g
- tissue uptake at 4 h [3, 10]: 1.07 %ID/g
- tissue uptake at 6 h [3, 10]: 0.28 %ID/g
- tissue uptake at 8 h ([3]; spleen, 8 h, read-out: spleen % ID/g): 0.11 %ID/g
- tissue uptake at 12 h [3, 10]: 0.04 %ID/g
- tissue uptake at 24 h [3, 10]: 0.02 %ID/g
- tissue uptake at 1 h [3, 11]: 2.49 %ID/g
- tissue uptake at 2 h [3, 11]: 1.51 %ID/g
- tissue uptake at 4 h [3, 11]: 1.16 %ID/g
- tissue uptake at 6 h [3, 11]: 0.49 %ID/g
- tissue uptake at 8 h ([3]; stomach, 8 h, read-out: stomach % ID/g): 0.22 %ID/g
- tissue uptake at 12 h [3, 11]: 0.07 %ID/g
- tissue uptake at 24 h [3, 11]: 0.04 %ID/g
- tissue uptake at 1 h [3, 12]: 5.11 %ID/g
- tissue uptake at 2 h [3, 12]: 2.9 %ID/g
- tissue uptake at 4 h [3, 12]: 1.71 %ID/g
- tissue uptake at 6 h [3, 12]: 0.95 %ID/g
- tissue uptake at 8 h ([3]; submaxillary glands, 8 h, read-out: submaxillary glands % ID/g): 0.24 %ID/g
- tissue uptake at 12 h [3, 12]: 0.04 %ID/g
- tissue uptake at 24 h [3, 12]: 0.03 %ID/g
- tissue uptake at 1 h ([3]; tumor, read-out: tumor % ID/g): 3.51 %ID/g
- tissue uptake at 2 h ([3]; tumor, read-out: tumor % ID/g): 3.17 %ID/g
- tissue uptake at 4 h ([3]; tumor, read-out: tumor % ID/g): 3.25 %ID/g
- tissue uptake at 6 h ([3]; tumor, read-out: tumor % ID/g): 1.96 %ID/g
- tissue uptake at 24 h ([3]; tumor, read-out: tumor % ID/g): 0.07 %ID/g
- tissue uptake at 8 h ([3]; tumor, up to 8 hours, Beu, read-out: intratumoral concentration): > 1 %ID/g
- tissue uptake at 8 h ([3]; tumor, 8 h, read-out: tumor % ID/g): 1.07 %ID/g
- tissue uptake at 12 h ([3]; tumor, read-out: tumor % ID/g): 0.36 %ID/g
- tumor image ([4]; ^123 I label): absence of images
- tumor image ([4]; after injection of A): not obtained any image
